Consider 33 compounds from patent publication US12139487B2, “Compounds and uses thereof” (Foghorn Therapeutics Inc., priority 2022, dated 2024).

For one assay, the target named is T1, BRM (Homo sapiens, UniProt P51531).
T1 construct: made in house; host or cells: High Five insect cells
The assay is described as follows: ATPase catalytic activity assay (ADP-Glo), BRM. The conditions noted are these: ATPase assay, selectivity BRG1/BRM, Table 10. Format: biochemical. The method, then:
The ATPase catalytic activity of BRM or BRG-1 was measured by an in vitro biochemical assay using ADP-Glo™ (Promega, V9102). The ADP-Glo™ kinase assay is performed in two steps once the reaction is complete. The first step is to deplete any unconsumed ATP in the reaction. The second step is to convert the reaction product ADP to ATP, which will be utilized by the luciferase to generate luminesce and be detected by a luminescence reader, such as Envision.
The assay reaction mixture […] contains 30 nM of BRM or BRG-1, 20 nM salmon sperm DNA (from Invitrogen, UltraPure™ Salmon Sperm DNA Solution, cat #15632011), and 400 μM of ATP in the ATPase assay buffer, which comprises of 20 mM Tris, pH 8, 20 mM MgCl2, 50 mM NaCl, 0.1% Tween-20, and 1 mM fresh DTT (Pierce™ DTT (Dithiothreitol), cat #20290). The reaction is initiated by the addition of the 2.5 μL ATPase solution to 2.5 μL ATP/DNA solution on low volume white Proxiplate-384 plus plate (PerkinElmer, cat #6008280) and incubates at room temperature for 1 hour. Then, following addition of 5 μL of ADP-Glo™ Reagent provided in the kit, the reaction incubates at room temperature for 40 minutes. Then, 10 μL of Kinase Detection Reagent provided in the kit is added to convert ADP to ATP, and the reaction incubates at room temperature for 60 minutes. Finally, luminescence measurement is collected with a plate-reading luminometer, such as Envision.

Assay [1] has as its system BRM-dependent transcription (BRG1 mutant lung cancer cell line A549). The assay is described as follows: BRM-dependent transcription, MMTV luciferase reporter in BRG1 mutant A549 cells. The conditions noted are these: Table 11; for IC50: A549-MMTV luciferase reporter, dexamethasone induced, 6 hours; for Ratio (MDA-MMTV IC50 (μM) divided by A549-MMTV IC50 (μM)): MMTV luciferase reporter cell lines, selectivity BRG1/BRM. Format: cell-based. The method, then:
The potential inhibitory effects of compounds on BRG1 and BRM dependent transcription was study by testing the activity of against the BRG1 mutant lung cancer cell line A549 and a MDA cell line with BRM removed by CRISPR. Both cell lines were genetically engineered with a BRG1 or BRM-dependent mouse mammary tumor virus luciferase reporter. Luciferase transcription was induced by dexamethasone in the presence of compound at different concentrations and luminescence was measured using a plate reader 6 hours after stimulation.
A general note: A reporter such as luciferase makes a cellular process visible.

T1 sequence (P51531 whole entry): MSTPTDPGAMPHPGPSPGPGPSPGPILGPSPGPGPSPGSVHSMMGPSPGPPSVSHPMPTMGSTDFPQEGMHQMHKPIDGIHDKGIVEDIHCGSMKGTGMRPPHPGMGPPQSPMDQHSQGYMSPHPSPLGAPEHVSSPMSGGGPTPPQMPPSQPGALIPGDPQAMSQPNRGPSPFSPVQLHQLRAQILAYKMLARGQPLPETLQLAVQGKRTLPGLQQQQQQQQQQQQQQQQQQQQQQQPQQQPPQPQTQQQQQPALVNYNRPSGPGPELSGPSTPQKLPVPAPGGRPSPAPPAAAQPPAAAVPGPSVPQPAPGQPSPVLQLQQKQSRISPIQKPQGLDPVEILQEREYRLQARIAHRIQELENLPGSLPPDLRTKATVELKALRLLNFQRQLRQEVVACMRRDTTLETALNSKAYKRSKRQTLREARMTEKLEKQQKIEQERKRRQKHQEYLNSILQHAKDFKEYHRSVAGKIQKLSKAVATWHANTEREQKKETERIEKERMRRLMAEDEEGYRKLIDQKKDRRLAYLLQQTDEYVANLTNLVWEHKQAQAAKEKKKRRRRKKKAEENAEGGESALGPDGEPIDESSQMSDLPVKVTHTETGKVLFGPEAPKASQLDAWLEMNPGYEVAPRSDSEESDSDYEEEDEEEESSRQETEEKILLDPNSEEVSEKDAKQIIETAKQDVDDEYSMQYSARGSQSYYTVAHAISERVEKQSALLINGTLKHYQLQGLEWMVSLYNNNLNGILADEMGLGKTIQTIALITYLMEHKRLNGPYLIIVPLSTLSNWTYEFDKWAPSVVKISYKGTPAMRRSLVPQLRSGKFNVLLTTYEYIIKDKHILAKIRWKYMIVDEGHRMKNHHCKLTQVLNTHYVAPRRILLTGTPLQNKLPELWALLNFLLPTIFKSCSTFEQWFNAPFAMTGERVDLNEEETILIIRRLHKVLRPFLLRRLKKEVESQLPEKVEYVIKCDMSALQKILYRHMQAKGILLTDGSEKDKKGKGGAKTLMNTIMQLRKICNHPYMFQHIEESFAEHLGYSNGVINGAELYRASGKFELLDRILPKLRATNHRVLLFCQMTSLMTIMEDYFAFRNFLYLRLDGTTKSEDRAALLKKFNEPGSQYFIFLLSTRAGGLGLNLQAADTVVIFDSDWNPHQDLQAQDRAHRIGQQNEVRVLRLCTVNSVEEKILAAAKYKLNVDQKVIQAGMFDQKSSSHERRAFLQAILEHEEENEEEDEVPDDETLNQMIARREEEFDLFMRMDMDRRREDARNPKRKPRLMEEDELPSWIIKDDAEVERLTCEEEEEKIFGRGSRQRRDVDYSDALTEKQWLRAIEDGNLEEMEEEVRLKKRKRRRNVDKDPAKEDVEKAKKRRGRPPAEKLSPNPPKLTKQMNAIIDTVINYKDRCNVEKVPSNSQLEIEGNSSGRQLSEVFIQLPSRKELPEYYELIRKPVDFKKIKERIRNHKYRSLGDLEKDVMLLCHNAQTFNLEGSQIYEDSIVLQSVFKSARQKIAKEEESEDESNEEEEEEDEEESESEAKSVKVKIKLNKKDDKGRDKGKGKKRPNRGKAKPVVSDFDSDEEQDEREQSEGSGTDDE

As for `C[C@@H]1CN(c2cccc(-c3ccc4cnc(CNC(=O)c5cc(F)c6c(c5)S(=O)(=O)[C@@H](F)CCO6)cc4n3)n2)C[C@H](C)O1` [Compound 14], on BRM, the “Ratio (BRG1 IC50 (μM) divided by BRM IC50 (μM))” value was determined as 9.92.
As for `C[C@@H]1CN(c2cccc(-c3ccc4cnc(CNC(=O)c5cc(F)c6c(c5)S(=O)(=O)[C@@H](F)CCO6)cc4n3)n2)C[C@H](C)O1` [Compound 325], the “Ratio (BRG1 IC50 (μM) divided by BRM IC50 (μM))” value at BRM stood at 13.06.
Regarding `CCOc1nc(C(F)F)ccc1-c1ccc2cnc(CNC(=O)c3cc(Cl)c4c(c3)S(=O)(=O)[C@@H](F)CCO4)cc2n1` [Compound 331, (R)-9-chloro-N-((2-(6-(difluoromethyl)-2-ethoxypyridin-3-yl)-1,6-naphthyridin-7-yl)methyl)-4-fluoro-3,4-dihydro-2H-benzo[b][1,4]oxathiepine-7-carboxamide 5,5-dioxide], the IC50 in assay [1] (Homo sapiens, A549, 6 h) is 16.9 nM. Also, the “Ratio (MDA-MMTV IC50 (μM) divided by A549-MMTV IC50 (μM))” value in assay [1] turned out to be 33.18.
The compound `O=C(NCc1cc2nc(-c3ccc(C(F)F)nc3OCC3CC3)ccc2cn1)c1cc(F)c2c(c1)S(=O)(=O)[C@@H](F)CCO2` [Compound 332, (4R)—N-[[2-[2-(cyclopropylmethoxy)-6-(difluoromethyl)-3-pyridyl]-1,6-naphthyridin-7-yl]methyl]-4,9-difluoro-5,5-dioxo-3,4-dihydro-2H-1,5benzoxathiepine-7-carboxamide] returned an IC50 in assay [1] (Homo sapiens, A549, 6 h) of 21 nM. The “Ratio (MDA-MMTV IC50 (μM) divided by A549-MMTV IC50 (μM))” value in assay [1] is recorded as 28.13.
Taken in the same sequence, the figures for `COc1cccc(-c2ccc3cnc(CNC(=O)c4cc(F)c5c(c4)S(=O)(=O)[C@@H](F)CCO5)cc3n2)n1` [Compound 333] were 15.4 nM and 31.11.
On the same counts, the results for `O=C(NCc1cc2nc(-c3cccc(C(F)F)n3)ccc2cn1)c1cc(F)c2c(c1)S(=O)(=O)[C@@H](F)CCO2` [Compound 334] are 19 nM and 26.38.
Consider `O=C(NCc1cc2nc(-c3cccc(C(F)(F)F)n3)ccc2cn1)c1cc(F)c2c(c1)S(=O)(=O)[C@@H](F)CCO2` [Compound 335], for which the midpoint of inhibition in assay [1] (Homo sapiens, A549, 6 h), the IC50, lay at 16.3 nM. In assay [1], the “Ratio (MDA-MMTV IC50 (μM) divided by A549-MMTV IC50 (μM))” value is given as 30.32.
In assay [1] (Homo sapiens, A549, 6 h), `O=C(NCc1cc2nc(-c3cccc(C4CC4(F)F)n3)ccc2cn1)c1cc(F)c2c(c1)S(=O)(=O)[C@@H](F)CCO2` (stereo partly shown) [Compound 336] displayed an IC50 of 15.3 nM. In addition, the “Ratio (MDA-MMTV IC50 (μM) divided by A549-MMTV IC50 (μM))” value in assay [1] is given as 22.47.
Taken in the same sequence, the figures for `O=C(NCc1cc2nc(-c3cccc(C4CC4)n3)ccc2cn1)c1cc(Cl)c2c(c1)S(=O)(=O)[C@@H](F)CCO2` [Compound 337] were 20.1 nM and 30.81.
Taken in the same sequence, the figures for `COc1ccccc1-c1ccc2cnc(CNC(=O)c3cc(F)c4c(c3)S(=O)(=O)[C@@H](F)CCO4)cc2n1` [Compound 338] were 14.1 nM and 21.68.
`Cc1cc(C(=O)NCc2cc3nc(-c4cccc(C5CC5)n4)ccc3cn2)cc2c1OCC[C@H](F)S2(=O)=O` [Compound 339] returned an IC50 in assay [1] (Homo sapiens, A549, 6 h) of 19.4 nM. The “Ratio (MDA-MMTV IC50 (μM) divided by A549-MMTV IC50 (μM))” value in assay [1] was found to be 40.09.
Taken in the same sequence, the figures for `Cc1cc(C(=O)NCc2cc3nc(N4CCOc5ccc(C(F)F)nc54)ccc3cn2)cc2c1OCC[C@H](F)S2(=O)=O` [Compound 340] were 15.8 nM and 26.04.
On the same counts, the results for `C[C@@H]1CN(c2cccc(-c3ccc4cnc(CNC(=O)c5cc(F)c6c(c5)S(=O)(=O)[C@@H](F)CO6)cc4n3)n2)C[C@H](C)O1` [Compound 341] are 122 nM and 28.75.
Consider `O=C(NCc1cc2nc(-c3cccc(OC(F)F)c3)ccc2cn1)c1cc(F)c2c(c1)S(=O)(=O)[C@@H](F)CCO2` [Compound 342], for which inhibition in assay [1] (Homo sapiens, A549, 6 h) was half-maximal at 17.9 nM (IC50). Also, in assay [1], the “Ratio (MDA-MMTV IC50 (μM) divided by A549-MMTV IC50 (μM))” value amounted to 23.62.
On the same counts, the results for `O=C(NCc1cc2nc(-c3ccnc(N4CCC4)n3)ccc2cn1)c1cc(F)c2c(c1)S(=O)(=O)[C@@H](F)CCO2` [Compound 343] are 11.1 nM and 24.93.
In assay [1] (Homo sapiens, A549, 6 h), `O=C(NCc1cc2nc(-c3ccnc(C4CC4)n3)ccc2cn1)c1cc(F)c2c(c1)S(=O)(=O)[C@@H](F)CCO2` [Compound 344] displayed an IC50 of 18.6 nM. Besides, the “Ratio (MDA-MMTV IC50 (μM) divided by A549-MMTV IC50 (μM))” value in assay [1] came out at 25.42.
Taken in the same sequence, the figures for `O=C(NCc1cc2nc(-c3ccnc(N4CCCC4)n3)ccc2cn1)c1cc(Cl)c2c(c1)S(=O)(=O)[C@@H](F)CCO2` [Compound 345] were 15.6 nM and 21.59.
On the same counts, the results for `O=C(NCc1cc2nc(-c3cccc(OC(F)F)n3)ccc2cn1)c1cc(Cl)c2c(c1)S(=O)(=O)[C@@H](F)CCO2` [Compound 346] are 19.9 nM and 44.98.
In turn, `Cc1ccc(-c2ccc3cnc(CNC(=O)c4cc(Cl)c5c(c4)S(=O)(=O)[C@@H](F)CCO5)cc3n2)c(OC(F)F)n1` [Compound 347] registered an IC50 in assay [1] (Homo sapiens, A549, 6 h) of 17.2 nM. The “Ratio (MDA-MMTV IC50 (μM) divided by A549-MMTV IC50 (μM))” value in assay [1] is on record as 25.03.
On the same counts, the results for `COc1nc(C(F)(F)F)ccc1-c1ccc2cnc(CNC(=O)c3cc(Cl)c4c(c3)S(=O)(=O)[C@@H](F)CCO4)cc2n1` [Compound 348] are 13.9 nM and 30.79.
Turning to `CN(C)c1nccc(-c2ccc3cnc(CNC(=O)c4cc(F)c5c(c4)S(=O)(=O)[C@@H](F)CCO5)cc3n2)n1` [Compound 349], 13 nM corresponded to half-maximal inhibition in assay [1] (Homo sapiens, A549, 6 h) (IC50). Also, the “Ratio (MDA-MMTV IC50 (μM) divided by A549-MMTV IC50 (μM))” value in assay [1] stood at 34.91.
Turning to `C[C@@H]1CN(c2cccc(-c3ccc4cnc(CNC(=O)c5cc(C6CC6)c6c(c5)S(=O)(=O)[C@@H](F)CCO6)cc4n3)n2)C[C@H](C)O1` [Compound 350], the IC50 in assay [1] (Homo sapiens, A549, 6 h) came out at 17 nM. In assay [1], the “Ratio (MDA-MMTV IC50 (μM) divided by A549-MMTV IC50 (μM))” value stood at 25.08.
`C[C@@H](CF)c1ccc2c(n1)N(c1ccc3cnc(CNC(=O)c4cc(F)c5c(c4)S(=O)(=O)[C@@H](F)CCO5)cc3n1)CCO2` [Compound 351]: in assay [1] (Homo sapiens, A549, 6 h), the IC50 was determined as 20 nM. Besides, in assay [1], the “Ratio (MDA-MMTV IC50 (μM) divided by A549-MMTV IC50 (μM))” value amounted to 25.07.
Take `O=C(NCc1cc2nc(N3CCCc4cc(OC(F)(F)F)cnc43)ccc2cn1)c1cc(F)c2c(c1)S(=O)(=O)[C@@H](F)CCO2` [Compound 352]: the midpoint of inhibition in assay [1] (Homo sapiens, A549, 6 h), the IC50, lay at 16.3 nM. For the same compound, in assay [1], the “Ratio (MDA-MMTV IC50 (μM) divided by A549-MMTV IC50 (μM))” value is recorded as 23.28.
Taken in the same sequence, the figures for `O=C(NCc1cc2nc(N3CCOc4cc(N5CC(F)(F)C5)cnc43)ccc2cn1)c1cc(F)c2c(c1)S(=O)(=O)[C@@H](F)CCO2` [Compound 353] were 15.5 nM and 21.63.
Taken in the same sequence, the figures for `COCc1ccc(-c2ccc3cnc(CNC(=O)c4cc(F)c5c(c4)S(=O)(=O)[C@@H](F)CCO5)cc3n2)nc1C1CC1` [Compound 354] were 17.2 nM and 26.53.
Compound `O=C(NCc1cc2nc(-c3ccc(OC(F)F)c(C4CC4)n3)ccc2cn1)c1cc(Cl)c2c(c1)S(=O)(=O)[C@@H](F)CCO2` [Compound 355] gave an IC50 in assay [1] (Homo sapiens, A549, 6 h) of 13.1 nM. Also, in assay [1], the “Ratio (MDA-MMTV IC50 (μM) divided by A549-MMTV IC50 (μM))” value is 23.10.
Taken in the same sequence, the figures for `COc1nc([C@@](C)(F)C(F)F)ccc1-c1ccc2cnc(CNC(=O)c3cc(F)c4c(c3)S(=O)(=O)[C@@H](F)CCO4)cc2n1` [Compound 356] were 14.6 nM and 23.98.
As for `O=C(NCc1cc2nc(-c3ccc(OC(F)F)c(C4CC4)n3)ccc2cn1)c1cc(Cl)c2c(c1)S(=O)(=O)[C@@H](F)CCO2` [Compound 357], in assay [1], it took 12.4 nM to reach half-maximal inhibition (IC50) and the “Ratio (MDA-MMTV IC50 (μM) divided by A549-MMTV IC50 (μM))” value amounted to 22.68.
As to `CCOc1cccc(-c2ccc3cnc(CNC(=O)c4cc(F)c5c(c4)S(=O)(=O)[C@@H](F)CCO5)cc3n2)n1` [Compound 358], the IC50 in assay [1] (Homo sapiens, A549, 6 h) was 15.3 nM. Further, the “Ratio (MDA-MMTV IC50 (μM) divided by A549-MMTV IC50 (μM))” value in assay [1] is listed as 27.40.
On the same counts, the results for `CCOc1cccc(-c2ccc3cnc(CNC(=O)c4cc(Cl)c5c(c4)S(=O)(=O)[C@@H](F)CCO5)cc3n2)n1` [Compound 359] are 18.8 nM and 29.73.
On the same counts, the results for `COc1nc(-c2ccc3cnc(CNC(=O)c4cc(Cl)c5c(c4)S(=O)(=O)[C@@H](F)CCO5)cc3n2)ccc1C(F)F` [Compound 360] are 19.9 nM and 23.20.
On the same counts, the results for `O=C(NCc1cc2nc(-c3cccc(OC(F)(F)F)n3)ccc2cn1)c1cc(F)c2c(c1)S(=O)(=O)[C@@H](F)CCO2` [Compound 361] are 17.9 nM and 22.13.

In general, IC50 refers to the midpoint of a concentration-inhibition curve. Low readings indicate greater potency in that assay, high ones weaker potency in that assay.
